Source: patent publication US20090239840A1, “AMINO SUBSTITUTED DIARYL[a,d]CYCLOHEPTENE ANALOGS AS [sequence] AGONISTS AND METHODS OF TREATMENT OF NEUROPSYCHIATRIC DISORDERS” (ACADIA PHARMACEUTICALS, INC., priority 2003, published 2009)

Legend:
muscarinic M1 receptor = target: T1, muscarinic M1 receptor (Homo sapiens, UniProt P11229); assay: R-SAT functional screen, M1; format: cell-based; conditions: R-SAT; for Emax: read-out: M1 eff (efficacy); for EC50: read-out: M1 pEC50 (converted)
T1 construct: expressed in transfected cells
T1 sequence (P11229 1-460): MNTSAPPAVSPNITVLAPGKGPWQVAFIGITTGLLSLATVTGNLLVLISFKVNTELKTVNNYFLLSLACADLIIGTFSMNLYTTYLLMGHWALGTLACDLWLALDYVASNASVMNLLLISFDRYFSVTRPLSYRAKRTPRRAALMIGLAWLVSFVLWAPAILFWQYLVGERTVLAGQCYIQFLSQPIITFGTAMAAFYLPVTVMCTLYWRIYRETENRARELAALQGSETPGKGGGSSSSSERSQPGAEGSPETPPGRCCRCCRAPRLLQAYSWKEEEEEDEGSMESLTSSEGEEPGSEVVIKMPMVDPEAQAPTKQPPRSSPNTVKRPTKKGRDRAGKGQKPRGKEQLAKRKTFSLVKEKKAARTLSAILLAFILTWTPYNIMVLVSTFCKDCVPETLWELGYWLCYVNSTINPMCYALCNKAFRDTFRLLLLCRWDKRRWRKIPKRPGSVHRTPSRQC
Protocol: (§1) Several compounds disclosed herein were evaluated for activity at muscarinic receptors using Receptor Selection and Amplification Technology (R-SAT) as described in U.S. Pat. No. 5,707,798, the disclosure of which is incorporated herein by reference in its entirety. The efficacy (eff) and potency (expressed as pEC50) of these compounds are presented in Table 1 at M1, M2, and M3 receptors.

muscarinic M2 receptor = target: T2, muscarinic M2 receptor (Homo sapiens, UniProt P08172); assay: R-SAT functional screen, M2; format: cell-based; conditions: R-SAT; for Emax: read-out: M2 eff (efficacy); for EC50: read-out: M2 pEC50 (converted)
T2 construct: expressed in transfected cells
T2 sequence (P08172 1-466): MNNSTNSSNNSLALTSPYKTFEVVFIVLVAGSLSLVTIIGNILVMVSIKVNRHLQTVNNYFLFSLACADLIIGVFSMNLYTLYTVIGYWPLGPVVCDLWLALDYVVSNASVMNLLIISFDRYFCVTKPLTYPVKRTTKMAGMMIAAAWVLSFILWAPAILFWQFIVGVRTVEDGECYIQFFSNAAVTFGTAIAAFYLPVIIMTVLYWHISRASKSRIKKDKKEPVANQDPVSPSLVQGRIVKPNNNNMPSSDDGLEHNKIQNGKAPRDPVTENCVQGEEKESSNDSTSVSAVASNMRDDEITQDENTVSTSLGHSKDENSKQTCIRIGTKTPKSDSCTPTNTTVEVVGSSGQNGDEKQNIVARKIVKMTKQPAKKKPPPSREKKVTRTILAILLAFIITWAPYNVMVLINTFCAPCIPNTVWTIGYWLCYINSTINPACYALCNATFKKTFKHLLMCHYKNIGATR
Protocol: as §1

Row | SMILES | Emax (muscarinic M1 receptor) [%] | Emax (muscarinic M2 receptor) [%] | EC50 (muscarinic M2 receptor) [nM] | EC50 (muscarinic M1 receptor) [nM]
1 | CC1CN(C2=Nc3cc(Cl)ccc3Nc3ccccc32)CC(C)N1 (centres unmarked) [8-Chloro-11-(3,5-dimethyl-piperazin-1-yl)-5H-dibenzo[b,e][1,4]diazepine] | 18 | 97 | 2510 | 
2 | Cc1ccc2c(c1)N=C(N1CCNCC1)c1ccccc1O2 [8-Methyl-11-(piperazin-1-yl)-dibenzo[b,f][1,4]oxazepine] |  | 76 | 3160 | 
3 | CN(C)CCNC1=Nc2ccccc2Nc2ccccc21 [N′-(5H-Dibenzo[b,e][1,4]diazepine-11-yl)-N,N-dimethyl-ethane-12-diamine] | 10 | 20 |  | 
4 | Clc1ccc2c(c1)N=C(N1CCNCC1)c1ccccc1O2 [8-Chloro-11-(piperazin-1-yl)-dibenzo[b,f][1,4]oxazepine] | 52 | 58 | 1000 | 100
5 | COc1ccc2c(c1)Oc1ccc(C(F)(F)F)cc1N=C2N1CCNCC1 [3-Methoxy-11-(piperazin-1-yl)-8-trifluoromethyl-dibenzo[b,f][1,4]oxazepine] |  | 17 |  | 
6 | Clc1ccc2c(c1)N=C(NC1CCNC1)c1ccccc1N2 (centres unmarked) [(8-Chloro-5H-dibenzo[b,e][1,4]diazepin-11-yl)-pyrrolidin-3-yl-amine] | 10 | 18 |  | 
7 | Cc1cccc2c1Oc1ccccc1N=C2N1CCNCC1 [4-Methyl-11-(piperazin-1-yl)-dibenzo[b,f][1,4]oxazepine] |  | 22 |  | 
8 | NC1CCN(C2=Nc3cc(Cl)ccc3Nc3ccccc32)CC1 [1-(8-Chloro-5H-dibenzo[b,e][1,4]diazepin-11-yl)-piperidine-4-yl-amine] | 6 | 95 | 2510 | 
9 | Brc1ccc2c(c1)C(N1CCNCC1)=Nc1ccccc1O2 [2-Bromo-11-(piperazin-1-yl)-dibenzo[bf][1,4]oxazepine] |  | 9 |  | 
10 | c1ccc2c(c1)N=C(N1CCNCC1)c1ccccc1O2 [11-(piperazin-1-yl)-dibenzo[b,f][1,4]oxazepine] |  | 58 | 2000 | 
11 | COc1ccc2c(c1)C(N1CCNCC1)=Nc1cc(Cl)ccc1N2 [8-Chloro-2-methoxy-11-(piperazin-1-yl)-5H-dibenzo[b,e][1,4]diazepine] | 7 | 7 |  | 
12 | c1ccc(-c2ccc3c(c2)N=C(N2CCNCC2)c2ccccc2O3)cc1 [8-Phenyl-11-(piperazin-1-yl)-dibenzo[b,f][1,4]oxazepine] |  | 33 | 1260 | 
13 | Cc1ccc2c(c1)C(N1CCNCC1)=Nc1ccccc1N2 [2-Methyl-11-(piperazin-1-yl)-5H-dibenzo[b,e][1,4]diazepine] | 1 | 9 |  | 
14 | c1ccc2c(c1)N=C(N1CCNCC1)c1ccccc1S2 [11-(piperazin-1-yl)-dibenzo[b,f][1,4]thiazepin] | 4 | 41 | 316 | 
15 | Clc1ccc2c(c1)N=C(N1CCNCC1)c1ccccc1S2 [8-Chloro-11-(piperazin-1-yl)-dibenzo[b,f][1,4]thiazepine] | 11 | 52 | 1260 | 
16 | Clc1ccc2c(c1)Nc1cc(Cl)ccc1C(N1CCNCC1)=N2 [3,7-Dichloro-11-(piperazin-1-yl)-5H-dibenzo[b,e][1,4]diazepine] | 15 | 19 |  | 
17 | Fc1ccc2c(c1)N=C(N1CCNCC1)c1ccccc1N2 [8-Fluoro-11-(piperazin-1-yl)-5H-dibenzo[b,e][1,4]diazepine] | 32 | 95 | 2000 | 200
18 | O=S(=O)(Oc1ccc2c(c1)N=C(N1CCNCC1)c1ccccc1N2)C(F)(F)F [8-(Trifluoromethanesulfonyloxy)-11-(piperazin-1-yl)-5H-dibenzo[b,e][1,4]diazepine] | 19 | 62 | 2510 | 
19 | Fc1ccc(CC2=Nc3cc(Cl)ccc3Nc3ccccc32)cc1 [8-Chloro-11-(4-fluorobenzyl)-5H-dibenzo[b,e][1,4]diazepine] | 3 | 7 |  | 
20 | COc1ccc2c(c1)Oc1ccc(C)cc1N=C2N1CCNCC1 [3-Methoxy-8-methyl-11-(piperazin-1-yl)-dibenzo[b,f][1,4]oxazepine] |  | 45 | 3160 | 
21 | FC(F)(F)c1ccc2c(c1)N=C(N1CCNCC1)c1cc(Br)ccc1O2 [2-Bromo-11-(piperazin-1-yl)-8-trifluoromethyl-dibenzo[b,f][1,4]oxazepine] |  | 11 |  | 

Row | SMILES | Emax (muscarinic M1 receptor) [%] | Emax (muscarinic M2 receptor) [%] | EC50 (muscarinic M2 receptor) [nM] | EC50 (muscarinic M1 receptor) [nM]
22 | Cc1ccc2c(c1)N=C(N1CCNCC1)c1cccc(C)c1O2 [4,8-Dimethyl-11-(piperazin-1-yl)-dibenzo[b,f][1,4]oxazepine] |  | 46 | 794 | 
23 | Clc1cccc2c1Nc1ccccc1C(N1CCNCC1)=N2 [6-Chloro-11-(piperazin-1-yl)-5H-dibenzo[b,e][1,4]diazepine] |  | 71 |  | 
24 | COc1ccc2c(c1)Oc1cc(Cl)ccc1N=C2N1CCNCC1 [7-Chloro-3-methoxy-11-(piperazin-1-yl)-dibenzo[b,f][1,4]oxazepine] |  | 44 | 1000 | 
25 | COc1ccc2c(c1)Oc1ccccc1N=C2N1CCNCC1 [3-Methoxy-11-(piperazin-1-yl)-dibenzo[b,f][1,4]oxazepine] |  | 45 | 2510 | 
26 | FC(F)(F)c1ccc2c(c1)N=C(N1CCNCC1)c1ccccc1O2 [11-(piperazin-1-yl)-8-trifluoromethyl-dibenzo[b,f][1,4]oxazepine] |  | 58 | 1260 | 
27 | Cc1cccc2c1Oc1ccc(Br)cc1N=C2N1CCNCC1 [8-Bromo-4-methyl-11-(piperazin-1-yl)-dibenzo[b,f][1,4]oxazepine] |  | 48 | 1580 | 
28 | COc1ccc2c(c1)Oc1ccc(F)cc1N=C2N1CCNCC1 [8-Fluoro-3-methoxy-11-(piperazin-1-yl)-dibenzo[b,f][1,4]oxazepine] |  | 49 | 2510 | 
29 | Clc1ccc2c(c1)Oc1ccc(Br)cc1C(N1CCNCC1)=N2 [2-Bromo-7-chloro-11-(piperazin-1-yl)-dibenzo[b,f][1,4]oxazepine] |  | 15 |  | 
30 | Clc1ccc2c(c1)N=C(N1CCNCC1)c1cc(Br)ccc1O2 [2-Bromo-8-chloro-11-(piperazin-1-yl)-dibenzo[b,f][1,4]oxazepine] |  | 13 |  | 
31 | FC(F)(F)c1ccc2c(c1)N=C(N1CCNCC1)c1ccc(Cl)cc1N2 [3-Chloro-11-(piperazin-1-yl)-8-trifluoromethyl-5H-dibenzo[b,e][1,4]diazepine] | 11 |  |  | 
32 | Cc1cccc2c1Oc1cc(Cl)ccc1N=C2N1CCNCC1 [7-Chloro-4-methyl-11-(piperazin-1-yl)-dibenzo[b,f][1,4]oxazepine] |  | 28 | 398 | 
33 | Cc1ccc2c(c1)N=C(N1CCNCC1)c1cc(Br)ccc1O2 [2-Bromo-8-methyl-11-(piperazin-1-yl)-dibenzo[b,f][1,4]oxazepine] |  | 17 |  | 
34 | Clc1ccc2c(c1)N=C(N1CCNCC1)c1c(Cl)cccc1N2 [1,8-Dichloro-11-(piperazin-1-yl)-5H-dibenzo[b,e][1,4]diazepine] |  | 84 | 2000 | 
35 | COc1ccc2c(c1)Oc1ccc(Br)cc1N=C2N1CCNCC1 [8-Bromo-3-methoxy-11-(piperazin-1-yl)-dibenzo[b,f][1,4]oxazepine] |  | 21 |  | 
36 | Brc1ccc2c(c1)N=C(N1CCNCC1)c1cc(Br)ccc1O2 [2,8-Dibromo-11-(piperazin-1-yl)-dibenzo[b,f][1,4]oxazepine] |  | 6 |  | 
37 | c1ccc(-c2ccc3c(c2)N=C(N2CCNCC2)c2ccccc2N3)cc1 [8-Phenyl-11-(piperazin-1-yl)-5H-dibenzo[b,e][1,4]diazepine] |  | 104 | 2000 | 
38 | Clc1ccc2c(c1)N=C(NC1CNC1)c1ccccc1N2 [Acetidin-3-yl-(8-chloro-5H-dibenzo[b,e][1,4]diazepine-11-yl)amine] |  | 17 |  | 
39 | Clc1ccc2c(c1)Oc1ccccc1C(N1CCNCC1)=N2 [7-Chloro-11-(piperazin-1-yl)-dibenzo[b,f][1,4]oxazepine] |  | 53 | 1260 | 
40 | COc1ccc2c(c1)Oc1ccc(Cl)cc1N=C2N1CCNCC1 [8-Chloro-3-methoxy-11-(piperazin-1-yl)-dibenzo[b,f][1,4]oxazepine] |  | 19 |  | 
41 | Fc1ccc2c(c1)N=C(N1CCNCC1)c1cc(Br)ccc1O2 [2-Bromo-8-fluoro-11-(piperazin-1-yl)-dibenzo[b,f][1,4]oxazepine] |  | 21 |  | 
